Molecular target: Neuraminidase (Influenza A virus, UniProt Q6Q793)

Structure (SMILES)	IC50 [nM]
CCC(CC)O[C@@H]1C=C(P(=O)(O)O)C[C@H](NC(=N)N)[C@H]1NC(C)=O	0.04
CCOP(=O)(O)C1=C[C@@H](OC(CC)CC)[C@H](NC(C)=O)[C@@H](N)C1 [TAMIPHOSPHOR MONOETHYL ESTER]	2.2
